Measurements: publication PMC6093661, “Vitamin E hydroquinone is an endogenous regulator of ferroptosis via redox control of 15-lipoxygenase” (PLoS ONE, 2018)
Several values for one entry are separate records, joined by “and”; a condition that tells them apart may be missing. Equal entries are not always repeated. Where two headings read alike, the source gives them in different places.

Key:
[1] = target: T1, Rabbit 15-lipoxygenase (rLOX15) (Oryctolagus cuniculus, UniProt P12530); assay: Lipoxygenase enzyme inhibition assay; assay type: biochemical; conditions: for activity at 100 µM: read-out: 15-Lipoxygenase Enzyme Assay % activity at 100 μM; for IC50: 50 μM arachidonic acid substrate
T1 construct: purchased Enzo Life Sciences, Inc. BML-PL015
T1 sequence (P12530 1-663): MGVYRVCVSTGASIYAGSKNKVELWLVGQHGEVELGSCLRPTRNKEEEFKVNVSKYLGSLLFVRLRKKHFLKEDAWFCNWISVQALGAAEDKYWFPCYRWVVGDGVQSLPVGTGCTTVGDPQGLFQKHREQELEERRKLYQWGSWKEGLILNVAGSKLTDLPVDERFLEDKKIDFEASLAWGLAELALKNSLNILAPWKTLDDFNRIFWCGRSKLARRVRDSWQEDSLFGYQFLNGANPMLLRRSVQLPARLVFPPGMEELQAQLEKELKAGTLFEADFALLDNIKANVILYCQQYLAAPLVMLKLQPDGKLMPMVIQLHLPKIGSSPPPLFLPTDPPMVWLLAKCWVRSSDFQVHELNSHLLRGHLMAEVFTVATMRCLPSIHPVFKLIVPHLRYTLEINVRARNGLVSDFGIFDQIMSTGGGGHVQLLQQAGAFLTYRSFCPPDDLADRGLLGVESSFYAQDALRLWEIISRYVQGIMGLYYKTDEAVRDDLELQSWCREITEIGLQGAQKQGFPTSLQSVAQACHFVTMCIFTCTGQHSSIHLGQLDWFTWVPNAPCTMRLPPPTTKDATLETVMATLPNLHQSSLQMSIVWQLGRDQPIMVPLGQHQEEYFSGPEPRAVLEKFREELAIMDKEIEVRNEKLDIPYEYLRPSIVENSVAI
Experimental: Rabbit 15-lipoxygenase (rLOX15, part number BML-PL015, lot number 3-P9009a) was obtained from Enzo Life Sciences, Inc. Sodium cholate (part number C6445, lot number 094K0209) was obtained from Sigma-Aldrich.
Stock solutions of test compounds were prepared in DMSO and then diluted to final assay concentrations in cholate mix such that final cholate and DMSO concentrations were maintained at 0.2%.

[2] = test system: Mouse striatal Q7 cells (STHdhQ7/Q7); assay: RSL3 ferroptosis cell rescue (cellular survival assay, CellTiter-Glo)
[3] = test system: Q7 cells; assay: RSL3-induced loss of Q7 cell viability; assay type: cell-based, mouse
Experimental: Ferroptotic cell death was induced in Q7 cells using RSL3, a GPX4 inhibitor previously described. All four stereoisomers of RSL3 were synthesized and purified using published methods. […] To assess compound rescue activity and potency from ferroptotic cell death, Q7 cells were seeded in clear bottom, black wall tissue culture-treated polystyrene plates (Corning) using either an electronic multichannel pipette or a Multidrop™ Combi Reagent Dispenser (ThermoFisher Scientific). Cells were incubated for 5 hours at 33°C in an atmosphere with 95% humidity and 5% CO2 to allow attachment of the cells to the culture plate. Test compounds were administered to the desired final concentrations using a D300e Digital Dispenser (Tecan), followed within 15 minutes by RSL3 (2 μM final concentration). DMSO diluent was back-filled to a final concentration of 0.3% (v/v). Cell plates were incubated at 33°C (5% CO2, 95% humidity) for 18 hours. After a 15-minute equilibration to room temperature, cell number/viability was assessed using the CellTiter-Glo® 2.0 Cell Titer Glo 2.0 reagent (a luminescence-based assay to quantitate ATP; Promega) which was added using the Multidrop™ Combi Reagent Dispenser (Thermo Fisher Scientific). After 15 minutes of incubation at room temperature, the luminescence (100 ms integration time) per well was determined using the BioTek Synergy plate reader. Data was imported into and analyzed using Dotmatics Studies software suite. EC50 values for each compound were estimated using standard four-parameter curve fitting algorithms. pEC50 is defined as negative-log10 (EC50) in M units.

[4] = test system: Q7 cells; assay: Cellular lipid oxidation assay (BODIPY 581/591 C11, RSL3-treated Q7 cells); assay type: cell-based, mouse; conditions: RSL3 2 μM, 6-point titration, time-lapse microscopy
Experimental: Ferroptosis was induced by RSL3 (2 μM final concentration) in Q7 cells as described above. The protective activity of co-treated compounds was assessed also as described above. The rate of cellular lipid oxidation after GPX4 inhibition was assessed by monitoring the time-dependent changes in green fluorescence of cells pre-labeled with BODIPY™ 581/591 C11 dye (5 μM, 30-minute labeling period; Thermo Fisher/Invitrogen) using the IncuCyte S3 live-cell imaging apparatus (Sartorius) using a 10x objective. Cells (three images per field; at least three replicate wells per condition) were imaged once hourly for up to 18 hours after compound and RSL3 addition. Quantification of cell images was performed using the IncuCyte Zoom software using the Basic Analyzer tool which utilized an algorithm that calculated the total green-positive area per well where “green-positive” was defined as 1.45 times the local background-subtracted fluorescent signal. After a 2-3-hour lag period post-RSL3 treatment, the cellular green fluorescence signal began increasing. The rate of change in total green-positive area per well from 3–9 hours post-compound treatment was calculated, then expressed relative to that observed in the RSL3-only control treatment group, which was defined as 100%.

[5] = ORAC (oxygen radical absorbance capacity) assay; conditions: average of 25 and 12.5 μM compound; mean, SEM, n = 6
Experimental: ORAC assay kits were purchased from Cell Biolabs. Assays were performed per the manufacturer’s instructions for lipophilic samples with minor modifications. DMSO stock solutions of compounds were diluted in an anaerobic glovebox to final concentrations of 25 and 12.5 μM in triplicate. A standard curve of Trolox® between 0–100 μM in triplicate per concentration was also generated on each assay plate. Diluted compounds and standards were removed from the glovebox and reactions initiated by addition of aerobic fluorescein reagent and radical initiator. Fluorescein fluorescence was monitored at excitation wavelength of 480 nm and emission wavelength of 520 nm every minute for one hour. AUC analysis was performed as described in the kit protocol. The “Trolox equivalents” at each concentration of test compound were calculated and the average Trolox equivalents at the two compound concentrations are presented. The errors were determined by propagating errors from the SEMs of the triplicate determinations to the averages across the two triplicate determinations.

[6] = Radical-trapping antioxidant (RTA) activity assay in DOPC liposomes
[7] = test system: 15-HETE release from Q7 cells; assay: Targeted arachidonate metabolite release cellular assay (RSL3-treated Q7 cells); assay type: cell-based, mouse; conditions: RSL3 co-treatment, compound 10 μM
Experimental: Ferroptosis was initiated by RSL3 (2 μM final concentration) in Q7 cells as described above. The protective activity of co-treated compounds was assessed also as described above. Four to five hours after RSL3 treatment, the conditioned medium was collected into 1.2-mL cluster tubes containing ice-cold acetonitrile at a ratio of 1:2. Tubes were snap frozen on dry ice and stored at -80°C.
Prior to analysis, samples were thawed on wet ice and then vortexed briefly. Samples were centrifuged at 4000 rpm for 15min at 4°C. Supernatant (40 μL) was transferred to a 96-well injection plate and 10 μL of both internal standard and HPLC grade water were added. A Shimadzu Nexera MP system coupled to a Sciex 6500 Qtrap and configured for micro-flow was used to analyze all samples. Samples were maintained at 4°C in the Nexera MP autosampler for the duration of the analytical run.
A Thermo Gold-C8 column (1.9 μm, 1.0 x 100 mm) operated at 45°C was used for chromatographic separation. The total run time of the liquid chromatography method was 10 min. Mobile phase A consisted of water with 0.1% formic acid. Mobile phase B was composed of 0.1% formic acid in 3:1 acetonitrile:isopropyl alcohol. Gradient elution was employed, with mobile phase B being ramped from 5% at 0min, to 50% at 2 min, and finally 98% at 7.5 min. Electrospray conditions for the μLC-ESI-MS/MS method were optimized for a flow rate of 125 μL/min and were as follows: Ion spray voltage was set to -4500 V, temperature of 250°C, curtain gas of 20, CAD gas of 10, and ion source gas 1 and 2 of 20 and 40 psi, respectively. Analyzer parameters were optimized for each compound using a combination of manual tuning and compound optimization. The following MRM transitions were used to quantify concentrations of 15-HETE, 12-HETE and Arachidonic Acid (AA). 15-HETE: 319→219; 12-HETE: 319→179; AA: 303→259.

[8] = Mus musculus, 18 h, read-out: RSL3 Ferroptosis Cell Assay Average EC50, Q7 cells, RSL3 2 μM, 18 h co-treatment, CellTiter-Glo 2.0

activity at 100 µM ([1]; rabbit 15-LO, compound 100 μM)	IC50 ([1]; rabbit 15-LO)	Compound	EC50 [2, 8]	further results
24%		Cc1c(C)c2c(c(C)c1O)CC[C@@](C)(CCC(=O)O)O2 [α-CEHC]	8510 nM	
18%	2190 nM	Cc1c(O)cc(CC[C@](C)(O)CCC[C@H](C)CCC[C@H](C)CCCC(C)C)c(O)c1C [γTHQ, γ-tocopherol hydroquinone]	64 nM	
14%	1370 nM	CC(C)=CCC/C(C)=C/CC/C(C)=C/CC[C@@](C)(O)CCc1cc(O)cc(C)c1O [δT3HQ, δ-tocotrienol hydroquinone]	146 nM	
9%	1990 nM	CC(C)=CCC/C(C)=C/CC/C(C)=C/CC[C@@](C)(O)CCc1c(C)c(O)c(C)c(C)c1O [αT3HQ, α-tocotrienol hydroquinone]	43 nM	
7%	1120 nM	CC(C)=CCC/C(C)=C/CC/C(C)=C/CC[C@@](C)(O)CCc1cc(O)c(C)c(C)c1O [γT3HQ, γ-tocotrienol hydroquinone]	36 nM	
46%		CC(C)=CCC/C(C)=C/CC/C(C)=C/CC[C@]1(C)CCc2cc(O)cc(C)c2O1 [δT3, δ-tocotrienol]	517 nM	
34%		Cc1c(O)cc2c(c1C)O[C@](C)(CCC[C@H](C)CCC[C@H](C)CCCC(C)C)CC2 [γT, γ-tocopherol]	3220 nM	
64%	> 100000 nM	CC(C)=CCC/C(C)=C/CC/C(C)=C/CC[C@]1(C)CCc2c(C)c(O)c(C)c(C)c2O1 [αT3, α-tocotrienol]	167 nM	fold more potent in inhibiting ferroptosis, tocotrienol vs corresponding tocopherol ([2]; Q7 cells, RSL3, EC50 ratio): ~ 30 fold
45%		Cc1cc(O)cc2c1O[C@](C)(CCC[C@H](C)CCC[C@H](C)CCCC(C)C)CC2 [δT, δ-tocopherol]	5670 nM	
17%	2090 nM	Cc1cc(O)cc(CC[C@](C)(O)CCC[C@H](C)CCC[C@H](C)CCCC(C)C)c1O [δTHQ, δ-tocopherol hydroquinone]	84 nM	

Continued, molecule first:

Compound	activity at 100 µM ([1]; rabbit 15-LO, compound 100 μM)	IC50 ([1]; rabbit 15-LO)	EC50 [2, 8]	further results
COC(=O)c1ccc([C@H]2c3[nH]c4ccccc4c3C[C@H](C(=O)OC)N2C(=O)CCl)cc1 [(1S,3R)-RSL3]				reduction of cell number/viability ([3]; RSL3 2 μM, 18 h, typical): > 80%; onset of cell death after RSL3 addition ([3]; RSL3 ≥1 μM): ~ 5 h; loss of cell viability ([3]; RSL3 ≥1 μM, 18 h after treatment): 80–95%; IC50 ([3]; most potent single stereoisomer of RSL3, read-out: IC50 for inhibition of Q7 cell viability): ~200 nM
CC(C)=CCC/C(C)=C/CC/C(C)=C/CC[C@@](C)(O)CCC1=CC(=O)C(C)=C(C)C1=O [γT3Q, γ-tocotrienol quinone]			52 nM	
CC(C)=CCC/C(C)=C/CC/C(C)=C/CC[C@]1(C)CCc2cc(O)c(C)c(C)c2O1 [γT3, γ-tocotrienol]				activity at 100 µM [1]: 33%
CC1=C(C)C(=O)C(CC[C@](C)(O)CCC[C@H](C)CCC[C@H](C)CCCC(C)C)=CC1=O [γTQ, γ-tocopherol quinone]			101 nM	
Cc1c(C)c2c(c(C)c1O)CC[C@@](C)(CCC[C@H](C)CCC[C@H](C)CCCC(C)C)O2 [αT, α-tocopherol, reference compound]	78%	> 100000 nM	5160 nM	effect on RSL3-induced lipid oxidation (BODIPY 581/591 C11 oxidation) [4]: prevented; inhibition of rabbit 15-LO enzyme activity ([1]; arachidonic acid as substrate, up to 100 μM): did not; ORAC Antioxidant Activity Assay Trolox Equiv. [5]: 0.073 Trolox Equiv. and 0.073 ± 0.008 Trolox Equiv.; Radical Trapping Assay AUC (Rel. Control) ([6]; 50 μM compound, 2 mol% in DOPC liposomes, BODIPY 581/591 C11 quenching, liposome-only control = 1): 5.123; RTA AUC fold greater than αTQ and αTHQ ([6]; DOPC liposomes, AUC relative to liposome only control): 2.5–4 fold; reduction of RSL3-induced 15-HETE production [7]: 19%; EC50 ([2]; read-out: RSL3 Ferroptosis Cell Assay Average EC50, Q7 cells, RSL3 2 μM, 18 h co-treatment, CellTiter-Glo 2.0): 5200 ± 2800 nM
CC1=CC(=O)C=C(CC[C@](C)(O)CCC[C@H](C)CCC[C@H](C)CCCC(C)C)C1=O [δTQ]			236 nM	
CC(C)=CCC/C(C)=C/CC/C(C)=C/CC[C@@](C)(O)CCC1=CC(=O)C=C(C)C1=O [δT3Q, δ-tocotrienol quinone]			163 nM	
CC(C)=CCC/C(C)=C/CC/C(C)=C/CC[C@@](C)(O)CCC1=C(C)C(=O)C(C)=C(C)C1=O [αT3Q, α-tocotrienol quinone]			43 nM	
